System: LCSCs
Assay: In vitro thermotherapy and chemotherapy under AMF or water bath, MTT assay
Assay type: cell-based, human
Settings: 37° C. under AMF for 30 min, 100 mg/mL for 1 h
Method: The AMF was generated by a 5 cm diameter 8-turn induction coil powered by a 3 kW alternating magnetic field generator. LCSCs were seeded in the 6-well plate at a density of 5×10^4 cells/mL. After 24 h incubation, cells were separately treated with 100 mg/mL CD20-Fe3O4@SiNPs, CD20-HSPI&Fe3O4@SiNPs, Fe3O4@SiNPs, HSPI&Fe3O4@SiNPs, SiNPs, and HSPI for 1 h. Cells without treatment were used as control. Following two washes with PBS, cells were placed inside the coil and heated to a defined temperature (between 37 and 50° C.) for 30 min. While frequency was kept constant at 350 kHz and temperature was monitored by using a thermometer immersed in a test tube containing 2 mL of solution. The traditional heating method (water bath heater) was used to compare with AMF heating. Cell survival was assessed by MTT assay.

Work on CO[C@H]1/C=C\C=C(/C)C(=O)NC2=CC(=O)C(NCCN(C)C)=C(C[C@@H](C)C[C@H](OC)[C@H](O)[C@@H](C)/C=C(\C)[C@@H]1OC(N)=O)C2=O [HSPI, 17-(Dimethylaminoethylamino)-17-demethoxygeldanamycin] yielded a cell survival rate of 77%.

From US10682421B2, “Nanoparticle composition for use in targeting cancer stem cells and method for treatment of cancer” (City University of Hong Kong, priority 2015, dated 2020)
